Source: patent publication US4965280A, “Antifungal carbinols” (E. I. Du Pont de Nemours and Company, priority 1989, dated 1990)
Values after ≈ are worked out from the molar mass of the structure shown. Where two headings read alike, the source gives them in different places.

Columns and labels:
Venturia inaequalis = test: Example A apple scab; format: in vivo; conditions: read-out: disease control rating, Ex. A
Description: (§1) The test compounds were dissolved in acetone in an amount equal to 6% of the final volume and then suspended at a concentration of 100 or 20 ppm in purified water containing 250 ppm of the surfactant TREM 014 (polyhydric alcohol esters). This suspension was sprayed to the point of run-off on apple seedings.

[1] = tested on: Cercosporidium personatum; test: Example B Peanut Late Leafspot; format: in vivo; conditions: Nothopassalora personata, read-out: disease control rating, Ex. B
Description: as §1, with “peanut seedlings.” for “apple seedings.”

Botrytis cinerea = test: Example C bean grey mold; format: in vivo; conditions: for pest or weed control at 100 ppm / pest or weed control at 20 ppm: Botrytis cinerea, 24 h, read-out: disease control rating, Ex. C
Description: as §1, with “broad bean seedlings.” for “apple seedings.”

[2] = tested on: Erysiphe graminis f. sp. tritici; test: Example D wheat powdery mildew; format: in vivo; conditions: Blumeria graminis, 144 h, read-out: disease control rating, Ex. D
Description: as §1, with “wheat seedlings.” for “apple seedings.”

Pyricularia oryzae = test: whole plant or invertebrate; format: in vivo; conditions: for pest or weed control at 100 ppm / pest or weed control at 20 ppm: Pyricularia oryzae, 120 h; for pest or weed control at 100 ppm: read-out: disease control rating, Ex. E, 100 PPM; for pest or weed control at 20 ppm: read-out: disease control rating, Ex. E, 20 PPM
Rhizoctonia solani = test: Example F rice sheath blight; format: in vivo; conditions: for pest or weed control at 100 ppm / pest or weed control at 20 ppm: Rhizoctonia solani, 144 h, read-out: disease control rating, Ex. F
Description: as §1, with “rice seedlings.” for “apple seedings.”

Puccinia recondita = test: Example G wheat leaf rust; format: in vivo; conditions: read-out: disease control rating, Ex. G
Phytophthora infestans = test: whole plant or invertebrate; format: in vivo; conditions: for pest or weed control at 100 ppm: Phytophthora infestans, in Solanum lycopersicum, read-out: disease control rating, Ex. H, 100 PPM
Plasmorpara viticola = test: Example I grape downy mildew; format: in vivo; conditions: for pest or weed control at 100 ppm: read-out: disease control rating, Ex. I
Description: as §1, with “grape seedlings.” for “apple seedings.”

[3] = tested on: Candida albicans ATCC 11651; test: In vivo systemic Candida infection in mice, primary assay; set-up: species or system Candida albicans; CF-1 female mice; conditions: 150 mg/kg per day; for responders at 150 mg/kg: Candida albicans, read-out: % Survival
Excerpt: The […] activity of test compounds is based on the percent (%) survival of infected animals receiving test or standard agent compared to that in an infected untreated group (Table 6). The in vivo assays are chronic systemic infections lethal to mice within 7 days post infection, [J. Barnes, et al. Lab Investigation, 49 460-467 (1963), and T. Rogers and E. Balish, Infection and Immunity, 14 33-38 (1976)].
Candida albicans ATCC 11651, from a frozen stock culture (10^9 organisms/ml) maintained at -70°, is diluted in saline to 1×10^7 organisms/ml and 0.2 ml inoculated intravenously (caudal vein) into 20.0 gm CF-1 female mice (Charles River).
Test compounds are routinely solubilized in 0.25% (w/v) methylcellulose (Methocel®) but for those compounds difficult to solubilize 10% (w/v) Emulophor® (EL620 GAF Corp.) is used. The standard antifungal agents, amphotericin B (Fungizone®) in water and ketoconazole (Nizoral®) in Methocel®, are administered at 1.0 mg/kg/day and 150 mg/kg/day, respectively.
In a primary assay, mice (10 per group) are infected with C. albicans, and receive test compounds at 50 or 150 mg/kg/day via the subcutaneous route. Animals are dosed with the test compound at 1 and 6 hour post-infection and then once daily for the next three days. Survival of mice in each group is recorded for 21 days.
Compounds which protect ≥70% of the infected animals for 14 days at a dose 150 mg/kg/day or less are viewed as active.

[4] = tested on: Candida albicans ATCC 11651; test: In vitro antifungal MIC, microtiter broth dilution; conditions: for MIC: Candida albicans, ATCC11651, 24 h, read-out: MIC values, C. albicans, 30°, 24 hours
Description: In vitro activity (Table 5) is expressed in terms of the minimal inhibitory concentration (MIC) of the test compound which inhibits the growth of yeasts and fungi.
The target organisms, Candida albicans ATCC 11651 and Aspergillus fumigatus ATCC 28214 are standardized, [V. Bezjak, J. Clinical Micro., 21 509-512 (1984)], to a concentration of 10^7 organisms/ml and maintained at -70° until use. Test compounds are solubilized in dimethyl sulfoxide (DMSO) and diluted in Eagle's Minimum Essential Medium (EMEM) broth to achieve a final concentration of 200 μg/ml. Stock solutions of standard antifungal agents are stored at -70° and diluted in EMEM as required.
The in vitro assay utilizes a microtiter broth dilution technique [L. Polonelli and G. Morace, Mycopathologia, 86, 21-28 (1984)] and C. […] The appropriate wells are inoculated with the required organism (C. albicans at 1×10^4 organisms/ml and A. fumigatus at 5×10^5 organisms/ml) and the assay incubated at 30° for 24 hours.

[5] = tested on: Aspergillus fumigatus ATCC 28214; test: In vitro antifungal MIC, microtiter broth dilution; conditions: for MIC: Aspergillus fumigatus, ATCC28214, 24 h, read-out: MIC values, A. fumigatus, 30°, 24 hours

Row | SMILES | pest or weed control at 100 ppm (Botrytis cinerea; 100 PPM) | pest or weed control at 100 ppm (Pyricularia oryzae) | pest or weed control at 100 ppm (Rhizoctonia solani; 100 PPM) | pest or weed control at 100 ppm (Phytophthora infestans) | pest or weed control at 100 ppm (Plasmorpara viticola) | responders at 150 mg/kg ([3]; ATCC11651, 168 h, day 7) | responders at 150 mg/kg ([3]; ATCC11651, 336 h, day 14) | responders at 150 mg/kg ([3]; ATCC11651, 504 h, day 21) | pest or weed control at 20 ppm (Venturia inaequalis) | pest or weed control at 20 ppm [1] | pest or weed control at 20 ppm (Botrytis cinerea) | pest or weed control at 20 ppm [2] | pest or weed control at 20 ppm (Pyricularia oryzae) | pest or weed control at 20 ppm (Rhizoctonia solani) | pest or weed control at 20 ppm (Puccinia recondita) | MIC [4] | MIC [5] | other results
1 | C=C(c1ccc(F)cc1)C(O)(Cn1cncn1)c1ccc(OC)cc1 (centres unmarked) [Example 663] | 95% | 57% | 36% | 0% | 39% |  |  |  |  |  |  |  |  |  |  |  |  | pest or weed control at 100 ppm (Venturia inaequalis; 100 PPM): 42%; pest or weed control at 100 ppm ([1]; 100 PPM): 100%; pest or weed control at 100 ppm ([2]; 100 PPM): 99%; pest or weed control at 100 ppm (Puccinia recondita; 100 PPM): 100%
2 | C=C(c1ccc(F)cc1)C(O)(CC)Cn1cncn1 (centres unmarked) [Example 668] | 76% | 1% | 0% | 22% | 31% | 70% | 10% | 0% | 65% | 17% | 31% | 31% | 1% | 0% | 100% | 0.4 µg/mL (≈ 1.53 µM) | 50 µg/mL (≈ 191 µM) | 
3 | C=C(c1ccc(F)cc1)C(O)(Cn1cncn1)c1ccc(F)cc1 (single isomer, unassigned) [Example 1277a] |  |  |  |  |  |  |  |  | 58% | 74% | 24% | 95% | 1% | 0% | 100% |  |  | % Survival ([3]; day 7): 80%; % Survival ([3]; day 14): 0%; % Survival ([3]; day 21): 0%; disease control rating, Ex. C (Botrytis cinerea; 100 PPM): 36%; disease control rating, Ex. E (Pyricularia oryzae; 100 PPM): 1%; disease control rating, Ex. F (Rhizoctonia solani; 100 PPM): 52%; disease control rating, Ex. H (Phytophthora infestans; 100 PPM): 8%; disease control rating, Ex. I (Plasmorpara viticola; 100 PPM): 31%; MIC values, C. albicans ([4]; 30°, 24 hours): 6.3 µg/mL (≈ 19.2 µM); MIC values, A. fumigatus ([5]; 30°, 24 hours): 100 µg/mL (≈ 305 µM)
4 | C=C(c1ccc(F)cc1)C(Cn1cncn1)(OC(C)=O)c1ccc(F)cc1 (centres unmarked) [Example 361] | 46% | 1% | 0% | 27% | 9% | 100% | 100% | 90% | 43% | 26% | 29% | 33% | 1% | 0% | 100% | 0.8 µg/mL (≈ 2.17 µM) | 25 µg/mL (≈ 67.7 µM) | 
5 | C=C(c1ccc(S(C)(=O)=O)cc1)C(O)(Cn1cncn1)c1ccc(F)cc1 (centres unmarked) [Example 177] | 26% | 10% | 0% | 0% | 0% |  |  |  | 82% | 26% | 50% | 46% | 0% | 0% | 100% | 3.2 µg/mL (≈ 8.26 µM) | > 100 µg/mL | 
